# Laboratory results published in US12043632B2, “6-heteroaryloxy benzimidazoles and azabenzimidazoles as JAK2 inhibitors” (Ajax Therapeutics, Inc., priority 2020, dated 2024).
# Target: T1, JAK2 (JH1domain-catalytic, Y1007F,Y1008F) kinase (Homo sapiens, UniProt O60674, Y1007F/Y1008F)
# T1 construct: JAK2 (JH1domain-catalytic, Y1007F,Y1008F) kinase was expressed as N-terminal fusion; made in house; host or cells: transiently transfected HEK293 cells
# Assay: JAK2 JH1 Domain Binding Assay
# Conditions: qPCR readout
# T1 sequence (O60674 849-1124 Y1007F/Y1008F limits assumed): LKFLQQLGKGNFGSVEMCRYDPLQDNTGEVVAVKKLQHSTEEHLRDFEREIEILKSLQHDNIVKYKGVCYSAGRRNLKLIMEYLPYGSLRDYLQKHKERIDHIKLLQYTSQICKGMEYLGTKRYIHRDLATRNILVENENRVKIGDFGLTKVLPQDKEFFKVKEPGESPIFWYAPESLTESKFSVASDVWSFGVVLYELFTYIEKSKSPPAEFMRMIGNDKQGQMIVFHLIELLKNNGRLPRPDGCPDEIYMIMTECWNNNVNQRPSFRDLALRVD
row,SMILES,Kd [nM]
1,"Cn1c(Nc2cc(C(C)(C)C)n([C@@H]3CCOC3)n2)nc2ncc(Oc3cnc4[nH]c(C5CC5)cc4c3)cc21 [Example I-1, (R)—N-(5-(tert-butyl)-1-(tetrahydrofuran-3-yl)-1H-pyrazol-3-yl)-6-((2-cyclopropyl-1H-pyrrolo[2,3-b]pyridin-5-yl)oxy)-1-methyl-1H-imidazo[4,5-b]pyridin-2-amine]",10 to 50
2,"Cn1c(Nc2cc(C(C)(C)C)n([C@H]3CCOC3)n2)nc2ncc(Oc3cnc4[nH]c(C5CC5)cc4c3)cc21 [Example I-2, (S)—N-(5-(tert-butyl)-1-(tetrahydrofuran-3-yl)-1H-pyrazol-3-yl)-6-((2-cyclopropyl-1H-pyrrolo[2,3-b]pyridin-5-yl)oxy)-1-methyl-1H-imidazo[4,5-b]pyridin-2-amine]",10 to 50
3,Cc1n[nH]c2ncc(Oc3cnc4nc(Nc5cc(C(C)(C)C)n([C@@H]6CCOC6)n5)n(C)c4c3)cc12 [Example I-3],< 10
4,"Cc1n[nH]c2ncc(Oc3cnc4nc(Nc5cc(C(C)(C)C)n([C@H]6CCOC6)n5)n(C)c4c3)cc12 [Example I-4, (S)—N-(5-(tert-butyl)-1-(tetrahydrofuran-3-yl)-1H-pyrazol-3-yl)-1-methyl-6-((3-methyl-1H-pyrazolo[3,4-b]pyridin-5-yl)oxy)-1H-imidazo[4,5-b]pyridin-2-amine]",< 10
5,"Cc1cc2ncc(Oc3cnc4nc(Nc5cc(C(C)(C)C)n([C@@H]6CCOC6)n5)n(C)c4c3Cl)cn2n1 [Example I-5, (R)—N-(5-(tert-butyl)-1-(tetrahydrofuran-3-yl)-1H-pyrazol-3-yl)-7-chloro-1-methyl-6-((2-methylpyrazolo[1,5-a]pyrimidin-6-yl)oxy)-1H-imidazo[4,5-b]pyridin-2-amine]",10 to 50
6,"Cc1cc2ncc(Oc3cnc4nc(Nc5cc(C(C)(C)C)n([C@H]6CCOC6)n5)n(C)c4c3Cl)cn2n1 [Example I-6, (S)—N-(5-(tert-butyl)-1-(tetrahydrofuran-3-yl)-1H-pyrazol-3-yl)-7-chloro-1-methyl-6-((2-methylpyrazolo[1,5-a]pyrimidin-6-yl)oxy)-1H-imidazo[4,5-b]pyridin-2-amine]",10 to 50
7,"Cn1c(Nc2cc(C(F)(F)C(F)(F)F)n([C@@H]3CCOC3)n2)nc2ncc(Oc3cnc4ccnn4c3)c(Cl)c21 [Example I-7, (R)-7-chloro-1-methyl-N-(5-(perfluoroethyl)-1-(tetrahydrofuran-3-yl)-1H-pyrazol-3-yl)-6-(pyrazolo[1,5-a]pyrimidin-6-yloxy)-1H-imidazo[4,5-b]pyridin-2-amine]",10 to 50
8,"Cn1c(Nc2cc(C(F)(F)C(F)(F)F)n([C@H]3CCOC3)n2)nc2ncc(Oc3cnc4ccnn4c3)c(Cl)c21 [Example I-8, (S)-7-chloro-1-methyl-N-(5-(perfluoroethyl)-1-(tetrahydrofuran-3-yl)-1H-pyrazol-3-yl)-6-(pyrazolo[1,5-a]pyrimidin-6-yloxy)-1H-imidazo[4,5-b]pyridin-2-amine]",10 to 50
9,Cn1c(Nc2cc(C(C)(C)C)n([C@@H]3CCOC3)n2)nc2ncc(Oc3cnc4[nH]cc(C#N)c4c3)cc21 [Example I-9],50 to 1000
10,"Cn1c(Nc2cc(C(C)(C)C)n([C@H]3CCOC3)n2)nc2ncc(Oc3cnc4[nH]cc(C#N)c4c3)cc21 [Example I-10, (S)-5-((2-((5-(tert-butyl)-1-(tetrahydrofuran-3-yl)-1H-pyrazol-3-yl)amino)-1-methyl-1H-imidazo[4,5-b]pyridin-6-yl)oxy)-1H-pyrrolo[2,3-b]pyridine-3-carbonitrile]",1000 to 5000
11,COCc1c[nH]c2ncc(Oc3cnc4nc(Nc5cc(C(C)(C)C)n([C@@H]6CCOC6)n5)n(C)c4c3)cc12 [Example I-11],< 10
12,COCc1c[nH]c2ncc(Oc3cnc4nc(Nc5cc(C(C)(C)C)n([C@H]6CCOC6)n5)n(C)c4c3)cc12 [Example I-12],< 10
13,"Cn1c(Nc2cc(C(C)(C)C)n([C@H]3CCOC3)n2)nc2ncc(Oc3cnn4ccnc4c3)c(Cl)c21 [Example I-13, (S)—N-(5-(tert-butyl)-1-(tetrahydrofuran-3-yl)-1H-pyrazol-3-yl)-7-chloro-6-(imidazo[1,2-b]pyridazin-7-yloxy)-1-methyl-1H-imidazo[4,5-b]pyridin-2-amine]",10 to 50
14,"Cn1c(Nc2cc(C(C)(C)C)n([C@@H]3CCOC3)n2)nc2ncc(Oc3cnn4ccnc4c3)c(Cl)c21 [Example I-14, (R)—N-(5-(tert-butyl)-1-(tetrahydrofuran-3-yl)-1H-pyrazol-3-yl)-7-chloro-6-(imidazo[1,2-b]pyridazin-7-yloxy)-1-methyl-1H-imidazo[4,5-b]pyridin-2-amine]",10 to 50
15,"Cn1c(Nc2cc(C(C)(C)C)n([C@@H]3CCOC3)n2)nc2ncc(Oc3cnn4cnnc4c3)c(Cl)c21 [Example I-15, (R)-6-([1,2,4]triazolo[4,3-b]pyridazin-7-yloxy)-N-(5-(tert-butyl)-1-(tetrahydrofuran-3-yl)-1H-pyrazol-3-yl)-7-chloro-1-methyl-1H-imidazo[4,5-b]pyridin-2-amine]",50 to 1000
16,"Cn1c(Nc2cc(C(C)(C)C)n([C@H]3CCOC3)n2)nc2ncc(Oc3cnn4cnnc4c3)c(Cl)c21 [Example I-16, (S)-6-([1,2,4]triazolo[4,3-b]pyridazin-7-yloxy)-N-(5-(tert-butyl)-1-(tetrahydrofuran-3-yl)-1H-pyrazol-3-yl)-7-chloro-1-methyl-1H-imidazo[4,5-b]pyridin-2-amine]",10 to 50
17,"Cn1c(Nc2cc(C(C)(C)C#N)n([C@H]3CCOC3)n2)nc2ncc(Oc3cnc4ccnn4c3)c(Cl)c21 [Example I-17, (S)-2-(3-((7-chloro-1-methyl-6-(pyrazolo[1,5-a]pyrimidin-6-yloxy)-1H-imidazo[4,5-b]pyridin-2-yl)amino)-1-(tetrahydrofuran-3-yl)-1H-pyrazol-5-yl)-2-methylpropanenitrile]",10 to 50
18,"Cn1c(Nc2cc(C(C)(C)C#N)n([C@@H]3CCOC3)n2)nc2ncc(Oc3cnc4ccnn4c3)c(Cl)c21 [Example I-18, (R)-2-(3-((7-chloro-1-methyl-6-(pyrazolo[1,5-a]pyrimidin-6-yloxy)-1H-imidazo[4,5-b]pyridin-2-yl)amino)-1-(tetrahydrofuran-3-yl)-1H-pyrazol-5-yl)-2-methylpropanenitrile]",10 to 50
19,"CN1CC[C@H](n2nc(Nc3nc4ncc(Oc5cnc6sccc6c5)c(Cl)c4n3C)cc2C(C)(C)C)C1 [Example I-19, (S)—N-(5-(tert-butyl)-1-(1-methylpyrrolidin-3-yl)-1H-pyrazol-3-yl)-7-chloro-1-methyl-6-(thieno[2,3-b]pyridin-5-yloxy)-1H-imidazo[4,5-b]pyridin-2-amine]",10 to 50
20,"CN1CC[C@@H](n2nc(Nc3nc4ncc(Oc5cnc6sccc6c5)c(Cl)c4n3C)cc2C(C)(C)C)C1 [Example I-20, (R)—N-(5-(tert-butyl)-1-(1-methylpyrrolidin-3-yl)-1H-pyrazol-3-yl)-7-chloro-1-methyl-6-(thieno[2,3-b]pyridin-5-yloxy)-1H-imidazo[4,5-b]pyridin-2-amine]",50 to 1000
21,"Cn1c(Nc2cc(C(C)(C)C)n([C@@H]3CCOC3)n2)nc2ncc(Oc3cnn4ccncc34)c(Cl)c21 [Example I-21, (R)—N-(5-(tert-butyl)-1-(tetrahydrofuran-3-yl)-1H-pyrazol-3-yl)-7-chloro-1-methyl-6-(pyrazolo[1,5-a]pyrazin-3-yloxy)-1H-imidazo[4,5-b]pyridin-2-amine]",< 10
22,"Cn1c(Nc2cc(C(C)(C)C)n([C@H]3CCOC3)n2)nc2ncc(Oc3cnn4ccncc34)c(Cl)c21 [Example I-22, (S)—N-(5-(tert-butyl)-1-(tetrahydrofuran-3-yl)-1H-pyrazol-3-yl)-7-chloro-1-methyl-6-(pyrazolo[1,5-a]pyrazin-3-yloxy)-1H-imidazo[4,5-b]pyridin-2-amine]",< 10
23,"Cn1c(Nc2cc(C(C)(C)C)n([C@H]3CCN(CCF)C3)n2)nc2ncc(Oc3cnn4ccnc4c3)c(Cl)c21 [Example I-25, (S)—N-(5-(tert-butyl)-1-(1-(2-fluoroethyl)pyrrolidin-3-yl)-1H-pyrazol-3-yl)-7-chloro-6-(imidazo[1,2-b]pyridazin-7-yloxy)-1-methyl-1H-imidazo[4,5-b]pyridin-2-amine]",10 to 50
24,"Cn1c(Nc2cc(C(C)(C)C)n([C@@H]3CCN(CCF)C3)n2)nc2ncc(Oc3cnn4ccnc4c3)c(Cl)c21 [Example I-26, (R)—N-(5-(tert-butyl)-1-(1-(2-fluoroethyl)pyrrolidin-3-yl)-1H-pyrazol-3-yl)-7-chloro-6-(imidazo[1,2-b]pyridazin-7-yloxy)-1-methyl-1H-imidazo[4,5-b]pyridin-2-amine]",50 to 1000
25,"CN1CC[C@@H](n2nc(Nc3nc4ncc(Oc5cnc6scnc6c5)c(Cl)c4n3C)cc2C(C)(C)C)C1 [Example I-27, (R)—N-(5-(tert-butyl)-1-(1-methylpyrrolidin-3-yl)-1H-pyrazol-3-yl)-7-chloro-1-methyl-6-(thiazolo[5,4-b]pyridin-6-yloxy)-1H-imidazo[4,5-b]pyridin-2-amine]",10 to 50
26,"CN1CC[C@H](n2nc(Nc3nc4ncc(Oc5cnc6scnc6c5)c(Cl)c4n3C)cc2C(C)(C)C)C1 [Example I-28, (S)—N-(5-(tert-butyl)-1-(1-methylpyrrolidin-3-yl)-1H-pyrazol-3-yl)-7-chloro-1-methyl-6-(thiazolo[5,4-b]pyridin-6-yloxy)-1H-imidazo[4,5-b]pyridin-2-amine]",10 to 50
27,"Cn1c(Nc2cc(C(C)(C)C)n([C@H]3CCN(CCF)C3)n2)nc2ncc(Oc3cnn4ccncc34)c(Cl)c21 [Example I-29, (S)—N-(5-(tert-butyl)-1-(1-(2-fluoroethyl)pyrrolidin-3-yl)-1H-pyrazol-3-yl)-7-chloro-1-methyl-6-(pyrazolo[1,5-a]pyrazin-3-yloxy)-1H-imidazo[4,5-b]pyridin-2-amine]",< 10
28,"Cn1c(Nc2cc(C(C)(C)C)n([C@@H]3CCN(CCF)C3)n2)nc2ncc(Oc3cnn4ccncc34)c(Cl)c21 [Example I-30, (R)—N-(5-(tert-butyl)-1-(1-(2-fluoroethyl)pyrrolidin-3-yl)-1H-pyrazol-3-yl)-7-chloro-1-methyl-6-(pyrazolo[1,5-a]pyrazin-3-yloxy)-1H-imidazo[4,5-b]pyridin-2-amine]",< 10
